Measured values reported in patent US20230337664A1, “FRUIT FLY CONTROL” (MACQUARIE UNIVERSITY, priority 2020, published 2023).

Columns and labels:
[1] = tested on: Bactrocera kraussi antenna; experiment: GC-EAG responses, Bactrocera kraussi; conditions: both sexes
Text: (§1) Coupled Gas Chromatography-Electroantennography (GC-EAG) recordings were made with Ag-glass microelectrodes filled with electroconductive gel (Spectra 360, Parker Laboratories Inc., USA). The head of male or female flies (i.e., Bactrocera tryoni, Bactrocera jarvisi, Bactrocera kraussi, and Zeugodacus cucumis) was separated from the body with a microscalpel and was placed on the tip of the indifferent electrode, making sure the base of the head is affixed to the gel in the electrode. The tip of the insect antenna was made to touch the recording electrode and was slightly inserted into the gel to stabilize the antenna. The mounted heads were under charcoal filtered and humidified air flow (2400 mL min-1) controlled by a flow controller (Stimulus Controller CS-55, Syntech, Hilversum, The Netherlands). The signals were passed through a high impedance amplifier (UN-06, Syntech, Hilversum, The Netherlands). 1-octanol or 1-nonanol were tested individually or as mixture of known concentration. After injection of compounds, the effluent from the GC column was simultaneously directed to the antennal preparation and the GC detector. […] The outputs from the EAG amplifier and the FID were monitored simultaneously and analysed using the GCEAD 2014 software v1.2.5 (Syntech, The Netherlands).

Bactrocera tryoni [2] = experiment: Four-arm olfactometer bioassay; format: in vivo; conditions: arm containing C1 vs without
Procedure: An acrylic four-arm olfactometer (120 mm dia.) was used to measure behavioural responses of Bactrocera tryoni males/females to food (yeast hydrolysate) with or without 1-octanol (EAG-active compound). Prior to each experiment, acrylic components were washed with a non-ionic detergent solution, rinsed with ethanol solution and distilled water, and left to air dry. Experiments were conducted in a controlled environment room (25±2° C., 60% RH). The central area was fitted with a filter-paper base (Whatmann No. 1, 12 cm dia.) to provide traction for the walking insects. The room was illuminated from above by uniform lighting from white fluorescent light bulbs to negate directional bias. Individual flies (10-15 days old) were introduced through a hole below the olfactometer. Each fly was given 5 min to acclimatize in the olfactometer, after which the experiment was run for 10 min for each replicate. The olfactometer was rotated 90° after each replicate to eliminate any directional bias in the room. Air was drawn through the central hole at 200 ml min-1 and subsequently exhausted from the room. The central arena of the olfactometer was divided into four discrete odour fields corresponding to each of four inlet arms. A choice test was performed that used two different opposite arms. […] Fly activity in each olfactometer was video recorded. The time spent in each arm was recorded using BORIS software. […]

Bactrocera jarvisi = experiment: Oviposition assay for Bactrocera jarvisi; format: in vivo; conditions: 1.17% in agar plate with mango juice; P<0.0001
Procedure: Agar plates with oviposition stimulant (MJ: Mango Juice) with 1-octanol (1.17%) or 1-nonanol (1.17%) were used as oviposition substrate to determine the oviposition deterrent activity of 1-octanol and 1-nonanol to gravid female B. jarvisi. Agar (0.8 g in 100 ml of diluted mango juice with water; 1:1) melted in a microwave, was cooled to 40° C. and appropriate amount of 1-octanol or 1-nonanol was added. This mixture was poured into Petri plates and cooled to 0° C. in a refrigerator. This was done to enhance setting of the mixture and lower volatile vaporization. Oviposition substrates were prepared freshly when required. Oviposition plate containing MJ alone (control), MJ+1-octanol or MJ+1-nonanol was provided to gravid females (20 gravid females; 15-20 days old) in cages (30×30×30 cm) to lay eggs. The eggs laid in each plate was enumerated under a stereo-dissecting microscope (Olympus, Japan). Twenty four replicates for each test compound and control were carried out.

Bactrocera tryoni [3] = experiment: Oviposition assay for Bactrocera tryoni; format: in vivo; conditions: 1.17% w/v in agar plate with γ-octalactone; P<0.0001
Procedure: Agar plates with oviposition stimulant (OS; γ-octalactone) with 1-octanol (1.17% w/v) or 1-nonanol (1.17% w/v) were used as oviposition substrate to determine the oviposition deterrent activity of 1-octanol and 1-nonanol to gravid female B. tryoni. Agarose (0.8 g in 100 ml water) was melted in a microwave, was cooled to 40° C. and appropriate amount of the oviposition stimulant in combination with 1-octanol or 1-nonanol was added. This mixture was poured into Petri plates and cooled at 0° C. in a refrigerator. This was done to enhance setting of the mixture and lower volatile vaporization. Oviposition substrates were prepared freshly when required. Oviposition plate containing OS alone (control), OS+1-octanol or OS+1-nonanol was provided to gravid females (50 gravid females; 15-20 days old) in cages (30×30×30 cm) to lay eggs. The eggs laid in each plate was enumerated under a stereo-dissecting microscope (Olympus, Japan). Thirty replicates for each test compound and control were carried out.

Ceratitis capitata = experiment: Oviposition assay for Ceratitis capitata; format: in vivo; conditions: grapes dipped in 1.17% w/v solution; P<0.0001
Text: Red seedless grapes from IGA express (Murdoch University, Perth) washed with warm water thrice and dried with paper towel were used as oviposition substrate. Solution of 1-octanol (1.17% w/v) or 1-nonanol (1.17% w/v) were made by mixing appropriate amounts of 1-octanol or 1-nonanol in water with ethanol as an emulsifier. Washed grapes of equal size, dipped into the above solutions for 15-20 sec, was provided to gravid females (50 gravid females; 15-20 days old) in cages (30×30×30 cm) to lay eggs. Grapes that were dipped in water and emulsifier mixture was used as control. Eggs laid in each grapes was enumerated under a stereo-dissecting microscope (Olympus, Japan). Forty replicates for each test compound and control were carried out.

Bactrocera tryoni [4] = experiment: Mating assay (mating disruption); format: in vivo; conditions: of 15 trials; 5 microliters on filter paper, air pumped into arena; P<0.00001 vs control
Procedure: Mating assays were carried out at dusk, the normal mating time of B. tryoni. A pair of 15-day old male and female flies were introduced into a behavioural arena 30 min before the onset of dusk. They were allowed to acclimatize for 20 min after which 1-octanol or filtered air was pumped through the inlet of the arena. Five microliters of 1-octanol was applied on a clean filter paper. This filter paper was placed into an air-tight vessel with an inlet and outlet. Charcoal filtered air (1 litre per hour) was pumped into the vessel from the inlet and the outlet was connected to the inlet of the arena with flies. Air from a vessel with clean filter paper was used as control. Fifteen pairs were set up for both 1-octanol treatment and air control. The activity of flies was recorded overnight, and the video was analysed using BORIS software. Collected data included (1) whether a pair mated, (2) Number of copulation attempts, and (3) copula duration.

[5] = tested on: Bactrocera jarvisi antenna; experiment: GC-EAG responses, Bactrocera jarvisi; conditions: both sexes
Text: as §1

[6] = tested on: Ceratitis capitata antenna; experiment: Standalone EAG, Ceratitis capitata; conditions: both sexes; ten replicates per compound per sex
Text: For the […], Ceratitis capitata, a standalone EAG was used for antennal recordings. Electroconductive gel (Spectra 360, Parker Laboratories Inc., USA) were applied to the arms of the metal electrodes and the head of male or female fly, separated from the body was affixed onto one of the indifferent metal arm. The recording arm with gel was made to touch a single or both the antenna of the fly. The antennal preparation was inserted to the EAG probe holder that was under filtered and humidified air the same as described above. The EAG signals were passed through a high impedance amplifier (UN-06, Syntech, Hilversum, The Netherlands). 1-Octanol or 1-nonanol of known concentrations were tested individually. The compounds (10 ul) were dispensed on a filter paper and were placed into a pasture pipette. The prepared pipettes were fixed tubing from the stimulus controller (CS-55, Syntech, The Netherlands) and the stimulus was puffed over the antennal preparation. The response was record using EAGPro software (Syntech, The Netherlands). Ten replicates were recorded for each compound per sex, with EAG activity confirmed in 100% of trials presenting 1-octanol or 1-nonanol for both sexes of C. capitata (FIG. 10E).

[7] = tested on: Bactrocera tryoni antenna; experiment: GC-EAD electrophysiology of ant extracts; conditions: peak in Head and Headspace volatiles
Text: Coupled Gas Chromatography-Electroantennography (GC-EAG) recordings were made with Ag-glass microelectrodes filled with electroconductive gel (Spectra 360, Parker Laboratories Inc., USA). The head of male or female Bactrocera tryoni, anaesthetized by chilling, was separated from the body with a microscalpel and was placed on the tip of the indifferent electrode, making sure the base of the head is affixed to the gel in the electrode. The tip of the insect antenna was made to touch the recording electrode and was slightly inserted into the gel to stabilize the antenna. The signals were passed through a high impedance amplifier (UN-06, Syntech, Hilversum, The Netherlands) and analysed using a software package provided by Syntech. Each extract-cuticular compounds, Dufour's glands, poison glands, trail, headspace, and head extractions were tested individually. After injection of extraction samples, the effluent from the GC column was simultaneously directed to the antennal preparation and the GC detector. Separation of compounds was achieved on an Agilent Gas Chromatography system equipped with a column injector and a flame ionization detector (FID), using an Agilent HP-5 column (30 m×0.32 mm, 0.25 μm film). […] The outputs from the EAG amplifier and the FID were monitored simultaneously and analysed using the Syntech software package. […]

Bactrocera kraussi = experiment: Oviposition assay for Bactrocera kraussi; format: in vivo; conditions: orange segments dipped in 1.17% w/v solution; P<0.0001
Text: Oranges from Woolworths (Marsfield, NSW) were washed with warm water and dried with paper towel. They were peeled and segmented and a single segment was used as oviposition substrate. Solution of 1-octanol (1.17% w/v) or 1-nonanol (1.17% w/v) were made by mixing appropriate amounts of 1-octanol or 1-nonanol in water with ethanol as an emulsifier. Orange segments of equal size, dipped into the above solutions for 15-20 sec, was provided to gravid females flies (20 gravid females; 20 days old) in cages (30×30×30 cm) to lay eggs. Orange segments dipped in water and emulsifier mixture was used as control. Eggs laid in each orange segment was enumerated under a stereo-dissecting microscope (Olympus, Japan). Twelve replicates for each test compound and control were carried out.

[8] = tested on: Bactrocera tryoni antenna; experiment: GC-EAG responses, Bactrocera tryoni; conditions: both sexes
Text: as §1

[9] = tested on: Zeugodacus cucumis antenna; experiment: GC-EAG responses, Zeugodacus cucumis; conditions: both sexes
Text: as §1

Zeugodacus cucumis = experiment: Oviposition assay for Zeugodacus cucumis; format: in vivo; conditions: 1.17% w/v with zucchini juice on agar plate; P<0.0001
Procedure: Agar plates applied with oviposition stimulant (OS: fresh zucchini juice) with 1-octanol (1.17% w/v) or 1-nonanol (1.17% w/v) were used as oviposition substrate to determine the oviposition deterrent activity of 1-octanol and 1-nonanol to gravid female Z. cucumis. Agar (0.8 g in 100 ml water) was melted in a microwave, was cooled to 40° C. and poured into Petri plates and cooled at 0° C. Oviposition stimulant alone or OS mixed with 1-octanol or 1-nonanol (50 ul) was spread on agarose plates. Oviposition substrates were prepared freshly when required. Oviposition plate containing OS alone (control), OS+1-octanol or OS+1-nonanol was provided to gravid females (20 gravid females; 15-20 days old) in cages (30×30×30 cm) to lay eggs. The eggs laid in each plate was enumerated under a stereo-dissecting microscope (Olympus, Japan). Twenty four replicates for each test compound and control were carried out.

CCCCCCCCO [1-octanol]
Trials with EAG activity [1]: 100 % of trials
Time spent in olfactometer arm (Bactrocera tryoni [2]): less time
Eggs laid on oviposition plates vs control (Bactrocera jarvisi): significantly different from control
Eggs laid on oviposition plates vs control (Bactrocera tryoni [3]): significantly different from control
Eggs laid vs control (Ceratitis capitata): significantly different from control
Trials in which flies attempted mating (Bactrocera tryoni [4]): none
Trials with successful mating (Bactrocera tryoni [4]): none
Trials with EAG activity [5]: 100 % of trials
Trials with EAG activity [6]: 100 % of trials
Response in fly's antenna (GC-EAD) [7]: trigger response
Eggs laid vs control (Bactrocera kraussi): significantly different from control
Trials with EAG activity [8]: 100 % of trials
Trials with EAG activity [9]: 100 % of trials
Eggs laid on oviposition plates vs control (Zeugodacus cucumis): significantly different from control

CCCCCCCCCO [1-nonanol]
Trials with EAG activity [1]: 100 % of trials
Eggs laid on oviposition plates vs control (Bactrocera jarvisi): significantly different from control
Eggs laid on oviposition plates vs control (Bactrocera tryoni [3]): significantly different from control
Eggs laid vs control (Ceratitis capitata): significantly different from control
Trials with EAG activity [5]: 100 % of trials
Trials with EAG activity [6]: 100 % of trials
Eggs laid vs control (Bactrocera kraussi): significantly different from control
Trials with EAG activity [8]: 100 % of trials
Trials with EAG activity [9]: 100 % of trials
Eggs laid on oviposition plates vs control (Zeugodacus cucumis): significantly different from control
